In one assay the test system is Akt. Put plainly: Akt phosphorylation by immunoblot in PC3 prostate carcinoma cells. The conditions noted are these: PC3 cells. Format: cell-based, human. As for the experimental part:
Such dephosphorylation may be the result of a direct inhibitory effect on the Akt protein itself, or alternatively, can be similarly achieved indirectly by boosting a negative regulator or inhibiting a positive regulator of Akt phosphorylation. […] PC3 prostate carcinoma cells were plated in 100 mm dishes, and when 70-80% confluent serum starved overnight. […] Cells were lysed, and the level of Akt Ser473 phosphorylation determined by immunoblot analysis with an activation specific antibody, and comparison made to levels of Akt protein expressed. To determine the effect on purified Akt, similarly plated but untreated PC3 cells were lysed in RIPA (minus phosphatase inhibitors), a stringent cell lysis buffer that minimizes maintenance of protein-protein complexes. […] The immunoprecipitated protein was then resolved and the level of activated Akt determined by immunoblot analysis as described above.
A reduction in net Akt activity could be achieved indirectly by either preventing the initial Akt phosphorylation, or alternatively, increasing Akt dephosphorylation [Kohn et. al. 1996]. […] Initially okadaic acid, a polyether toxin from red-tide algae (and causative agent of diarrhoetic shellfish poisoning) which inhibits the phospho-protein phosphatases PP1 and PP2A, two phosphatases implicated in the regulation of Akt dephosphorylation was used [Fernandez et al., 2002]. 5×10^5 PC3 prostate carcinoma cells were plated per well of a 6 well plate, allowed attach for 8 h, and then serum starved overnight. […] Lysed cells were resolved by SDS-PAGE, then probed for Akt phosphorylation at the Ser473 residue by immunoblot analysis with an antibody that specifically recognizes Akt when phosphorylated at this site, and comparison made with the total levels of Akt protein expressed (FIG. 2A).
This panel included tautamycin 500 nM (PP1), okadaic acid 500 nM (low dose PP2A>PP1), endothall A (PP2A) 100 μM, calyculin A 2 nM (low dose PP1>PP2A), calyculin A 10 nM (high dose inhibits PP1 and PP2A) and cyclosporine A 400 ng/ml (PP2B). […] Again, lysed cells were resolved by SDS-PAGE, then membranes probed for Akt phosphorylation at the Ser^473 residue by immunoblot analysis with an antibody that specifically recognizes Akt when phosphorylated at this site, and comparison made with the total levels of Akt protein expressed.
5×10^5 PC3 prostate carcinoma cells were plated per well in a 6-well plate, allowed to attach for 8 h, and then serum starved overnight. […] Equal amounts of whole cell lysates were resolved, and then subjected to immunoblot analysis to determine the level of phosphorylated Akt Ser^473. Comparison was then made with the total level of Akt protein expressed.
The phosphorylation status of Akt in whole cell lysates was determined using activation specific antibodies.
Other inorganic (sodium selenite, selenium dioxide, selenium sulphide and selenious acid) and organic (methylselenocysteine, selenocystine) selenium species were tested for their ability to affect Akt activation. All forms were dissolved in water with the exception of selenium sulphide which was solubilised in DMSO, and added to serum starved PC3 cells at a concentration of 500 μM for 1 hour, Whole cell lysates were then resolved, and the activation status of Akt determined by immunoblotting with an antibody that specifically recognizes Akt when phosphorylated at the Ser473 site, as well as the total level of Akt expression (pan Akt). To quantify the degree of Akt activation, immunoblots were digitalised, and the ratio of phosphorylated Akt to total Akt determined by densitometry.

Assay [1] addresses T1, human PP2A A-C heterodimer (Homo sapiens, UniProt P67775).
T1 construct: purified PP2A A-C dimer purified from human red blood cells; purchased Upstate 14-111 (lot #28002); host or cells: human red blood cells (native purification)
Format: biochemical. The conditions noted are these: 0.05 U PP2A dimer, 30 min at 37° C.; sodium selenate 5 mM, okadaic acid 500 nM. As to the method:
In initial assays a chemical substrate of phosphatase enzymatic action, para-nitrophennylphosphate (pNPP) was used, which following hydrolysis of the phosphate moiety generates para-nitrophenol, an intensely yellow chromogen which is soluble under alkaline conditions. […] Absorbance of each sample was measured in duplicate at 405 nm with 590 nm as a reference. PP2A activity was calculated using the following equation: activity=(sample vol in liters)×A405/1.78×104M^−1 cm^−1 (extinction coefficient)×0.25 cm×15 minutes×0.05 U enzyme Data is presented as mean relative phosphatase activity ±SEM from at least three independent experiments.
Para-nitrophennylphosphate (PNPP) is a chemical substrate of phosphatase enzymes, which following hydrolysis of the phosphate moiety generates para-nitrophenol, an intensely yellow chromogen, soluble under alkaline conditions. In assays measuring relative phosphatase activity, 0.05 U of purified PP2A was mixed with 5 μl of 40 mM NiCl2 and 5 μl of BSA solution (5 mg/ml) in a microcentrifuge tube. Various treatments were added as indicated, and the volume adjusted to 80 μl with pNPP assay buffer. Samples were pre-incubated at 37° C. for 15 min. pNPP substrate was freshly prepared before each assay by dissolving 1.5 mg/ml pNPP in 50 mM Tris-HCl, pH 7.0. To start the phosphatase reaction, 120 μl of pNPP substrate was added, and samples incubated for a further 15 min at 37° C. Absorbance of each sample was measured in duplicate at 405 nm with 590 nm as a reference. PP2A activity was calculated using the following equation: activity=(Sample volume in liters)×A405/1.78×10^4M^−1cm^−1 (Extinction coefficient)×0.25 cm×15 min×0.05 U enzyme.

For a further assay, the system named is p70S6K. Format: cell-based, human. The conditions noted are these: PC3 cells; LY294002 50 μM 1 hour, sodium selenate 500 μM 1 hour, okadaic acid 500 nM. As for the experimental part:
5×10^5 PC3 prostate carcinoma cells were plated per well of a 6-well plate, allowed to attach for 8 hours, then serum starved overnight. […] Equal amounts of whole cell lysates (75 μg) were resolved by SDS-PAGE, and the level of p70S6K phosphorylation determined by immunoblot analysis with an antibody that specifically recognizes the p70S6K protein when phosphorylated on Thr389. Comparison is made with the protein loading control β tubulin.

T1 sequence (P67775 whole entry): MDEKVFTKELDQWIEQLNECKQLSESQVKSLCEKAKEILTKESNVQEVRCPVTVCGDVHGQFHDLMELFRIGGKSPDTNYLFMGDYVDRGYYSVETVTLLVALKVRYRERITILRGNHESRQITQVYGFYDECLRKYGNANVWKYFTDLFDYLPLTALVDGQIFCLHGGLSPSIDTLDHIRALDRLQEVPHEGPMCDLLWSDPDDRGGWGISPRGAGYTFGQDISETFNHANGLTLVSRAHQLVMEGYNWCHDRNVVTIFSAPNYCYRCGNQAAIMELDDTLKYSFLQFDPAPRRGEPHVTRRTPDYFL
T1 sequence (P30153 2-589 partner limits assumed): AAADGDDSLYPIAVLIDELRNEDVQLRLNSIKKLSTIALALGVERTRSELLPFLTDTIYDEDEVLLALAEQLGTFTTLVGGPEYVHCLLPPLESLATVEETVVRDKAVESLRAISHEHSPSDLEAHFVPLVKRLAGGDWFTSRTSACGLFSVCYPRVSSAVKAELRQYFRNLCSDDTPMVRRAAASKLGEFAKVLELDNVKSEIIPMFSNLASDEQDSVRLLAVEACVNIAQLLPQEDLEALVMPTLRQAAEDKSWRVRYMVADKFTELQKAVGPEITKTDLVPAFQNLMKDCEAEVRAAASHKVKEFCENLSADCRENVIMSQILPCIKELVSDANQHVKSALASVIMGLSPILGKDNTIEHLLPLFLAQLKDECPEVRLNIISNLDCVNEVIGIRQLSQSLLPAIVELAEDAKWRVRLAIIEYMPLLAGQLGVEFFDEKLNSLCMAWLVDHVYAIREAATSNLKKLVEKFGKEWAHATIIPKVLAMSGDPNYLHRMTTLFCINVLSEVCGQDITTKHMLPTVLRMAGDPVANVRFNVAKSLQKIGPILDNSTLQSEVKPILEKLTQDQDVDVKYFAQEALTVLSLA

As for `C=C1[C@@H](O)[C@@H]2O[C@]3(CC[C@H](/C=C/[C@@H](C)[C@@H]4CC(C)=C[C@@]5(O[C@H](C[C@@](C)(O)C(=O)O)CC[C@H]5O)O4)O3)CC[C@H]2O[C@@H]1[C@@H](O)C[C@H](C)[C@H]1O[C@@]2(CCCCO2)CC[C@H]1C` [okadaic acid], in the assay on Akt (inhibitor 30 min (okadaic acid 500 nM, endothall A 100 μM, tautamycin 500 nM, calyculin A 2 nM, cyclosporine A 400 ng/ml), then sodium selenate 500 μM 1 h), the “effect of PPP inhibitor pretreatment on sodium selenate induced Akt Ser473 dephosphorylation” value is reported as “completely blocked sodium selenate induced Akt dephosphorylation”. For the same compound, the “effect of pretreatment on the sodium selenate induced reduction of Akt phosphorylation” value in the assay on Akt (okadaic acid 5 nM 30 min, then sodium selenate 500 μM 1 h) is listed as “unaffected”; with Akt (okadaic acid 1000 nM 30 min, then sodium selenate 500 μM 1 h) it was “completely abolishes the inhibitory effect of sodium selenate”. Moreover, in the assay with Akt (okadaic acid 1000 nM), the “Akt Ser473 phosphorylation in non-selenate controls” value is given as “boosts Akt phosphorylation in non-selenate controls”. Besides, in assay [1], the “PP2A phosphatase activity (pNPP)” value is listed as “completely abolished”. Further, in the assay on p70S6K, the “p70S6K phosphorylation on Thr389” value is “boosts the level of phosphorylation observed”.

These data come from US8920851B2, “Treatment of neurodegenerative diseases” (Velacor Therapeutics Pty Ltd, priority 2006, dated 2014).
